IC50 data for 43 compounds are collected here from ChEMBL document CHEMBL5154722, “Identification of new potent anticancer derivatives through simplifying the core structure and modification on their 14- hydroxyl group from oridonin” (Eur J Med Chem, 2022).

Holding throughout (assay type): functional, cell-based
One test concerns K562. Put plainly: Antiproliferative activity against human K562 cells assessed as reduction in cell viability incubated for 72 hrs by MTT assay. The conditions noted are these: K562, 72 h.
A further test deals with MDA-MB-231. The test can be described thus: Antiproliferative activity against human MDA-MB-231 cells assessed as reduction in cell viability incubated for 72 hrs by MTT assay. The note with it: MDA-MB-231, 72 h.
A further test relates to SMMC-7721. Put plainly: Antiproliferative activity against human […] cells assessed as reduction in cell viability incubated for 72 hrs by MTT assay. The note with it: SMMC-7721, 72 h. (In general: Tetrazolium dyes change colour on reduction, which living cells bring about.)
The next test has as its system MCF7. Put plainly: Antiproliferative activity against human MCF7 cells assessed as reduction in cell viability incubated for 72 hrs by MTT assay. The note with it: MCF7, 72 h.

For the compound `C=C1C(=O)[C@]23[C@H](OC(=O)/C=C/c4ccc(F)nc4)[C@H]1CC[C@H]2[C@]12C=CCC(C)(C)[C@H]1[C@H](O)[C@@]3(O)OC2`, the half-inhibitory concentration (IC50) – broadly, the concentration that gives 50% inhibition – in the test with K562 was 830 nM.
`C=C1C(=O)[C@]23[C@H](OC(=O)/C=C(\C)c4ccccc4)[C@H]1CC[C@H]2[C@]12CCCC(C)(C)[C@H]1[C@H](O)[C@@]3(O)OC2`: the IC50 in the test on K562 was found to be 5320 nM.
The same measure, in the same setting: for `C=C1C(=O)[C@]23[C@H](OC(=O)/C=C/c4ccc5ccccc5c4)[C@H]1CC[C@H]2[C@]12C=CCC(C)(C)[C@H]1[C@H](O)[C@@]3(O)OC2` the value was 2880 nM; for `C=C1C(=O)[C@]23[C@H](OC(=O)c4ccc(C)cc4)[C@H]1CC[C@@]2(C)[C@]12CCCC(C)(C)[C@H]1[C@H](O)[C@@]3(O)OC2`, 3010 nM; for `C=C1C(=O)[C@]23[C@H](OC(=O)CCc4ccccc4)[C@H]1CC[C@H]2[C@]12C=CCC(C)(C)[C@H]1[C@H](O)[C@@]3(O)OC2`, 2740 nM.
Same read-out and setting: the result for `C=C1C(=O)[C@]23[C@H](OC(=O)C=C(C)C)[C@H]1CC[C@H]2[C@]12CCCC(C)(C)[C@H]1[C@H](O)[C@@]3(O)OC2` reads 900 nM.
The same measure, in the same setting: the result for `C=C1C(=O)[C@]23[C@H](OC(=O)/C=C/c4ccco4)[C@H]1CC[C@H]2[C@]12CCCC(C)(C)[C@H]1C[C@@]3(O)OC2` reads 1440 nM.
On to `C=C1C(=O)[C@]23[C@H](OC(=O)/C=C/c4cccnc4Br)[C@H]1CC[C@H]2[C@]12C=CCC(C)(C)[C@H]1[C@H](O)[C@@]3(O)OC2`, for which the IC50 in the test on K562 was 3090 nM.
Consider `C=C1C(=O)[C@]23[C@H](O)[C@H]1CC[C@H]2[C@]12CCCC(C)(C)[C@H]1[C@H](O)[C@@]3(O)OC2`, for which the 50% inhibitory concentration (IC50) in the test on K562 was found to be 1230 nM; in the test with MDA-MB-231, 2040 nM; in the test with SMMC-7721, 3140 nM; in the test on MCF7, 2800 nM.
Take `C=C1C(=O)[C@]23[C@H](OC(C)=O)[C@H]1CC[C@H]2[C@]12CCCC(C)(C)[C@H]1C[C@@]3(O)OC2`: in the test with K562, the IC50 stood at 1200 nM.
Turning to `C=C1C(=O)[C@@]23C(=O)[C@@H](OC(C)=O)[C@@H]4C(C)(C)CCC[C@@]4(COC(C)=O)[C@@H]2CC[C@@H]1[C@H]3OC(C)=O`, the half-maximal inhibitory concentration (IC50) with K562 turned out to be 1030 nM; in the test with MDA-MB-231 it was 1590 nM; in the test with SMMC-7721, 2270 nM; in the test on MCF7 it was 2060 nM.
Take `C=C1C(=O)[C@]23[C@H](OC(=O)C4CCCCC4)[C@H]1CC[C@H]2[C@]12CCCC(C)(C)[C@H]1[C@H](O)[C@@]3(O)OC2`: the half-inhibitory concentration (IC50) with K562 stood at 4050 nM.
As to `C=C1C(=O)[C@@]23C(=O)[C@@H](OC(C)=O)[C@@H]4C(C)(C)CC=C[C@@]4(COC(C)=O)[C@@H]2CC[C@@H]1[C@H]3OC(C)=O`, the concentration for half-maximal inhibition (IC50) in the test on K562 worked out at 1670 nM; with MDA-MB-231 it was 3140 nM; in the test on SMMC-7721, 2920 nM; with MCF7 it was 3570 nM.
For the compound `C=C1C(=O)[C@]23[C@H](OC(=O)c4ccccc4)[C@H]1CC[C@H]2[C@]12CCCC(C)(C)[C@H]1[C@H](O)[C@@]3(O)OC2`, the IC50 with K562 is 3450 nM.
Still for that read-out and setting: the result for `C=C1C(=O)[C@]23[C@H](OC(=O)/C=C/c4ccc[nH]4)[C@H]1CC[C@H]2[C@]12CCCC(C)(C)[C@H]1[C@H](O)[C@@]3(O)OC2` reads 1320 nM; that for `C=C1C(=O)[C@]23[C@H](OC(=O)c4ccc(Br)cc4)[C@H]1CC[C@H]2[C@]12CCCC(C)(C)[C@H]1[C@H](O)[C@@]3(O)OC2`, 4380 nM.
In the case of `C=C1C(=O)[C@]23[C@H](OC(=O)/C=C/C)[C@H]1CC[C@H]2[C@]12CCCC(C)(C)[C@H]1[C@H](O)[C@@]3(O)OC2`, the 50% inhibitory concentration (IC50) with K562 amounted to 390 nM.
Still for that read-out and setting: for `C=C1C(=O)[C@]23[C@H](OC(=O)c4ccc(C)cc4)[C@H]1CC[C@H]2[C@]12CCCC(C)(C)[C@H]1C[C@@]3(O)OC2` the value was 5460 nM.
On to `C=C1C(=O)[C@]23[C@H](O)[C@H]1CC[C@H]2[C@]12CCCC(C)(C)[C@H]1C[C@@]3(O)OC2`, for which the half-maximal inhibitory concentration (IC50) in the test on K562 was determined as 1980 nM; in the test with MDA-MB-231, 2510 nM; in the test with SMMC-7721, 2960 nM; with MCF7, 2970 nM.
Regarding `C=C1C(=O)[C@]23[C@H](OC(=O)/C=C/c4ccc(OC)nc4)[C@H]1CC[C@H]2[C@]12C=CCC(C)(C)[C@H]1[C@H](O)[C@@]3(O)OC2`, the IC50 in the test with K562 turned out to be 1520 nM.
In the case of `C=C1C(=O)[C@]23[C@H](OC(=O)c4cccc(C)c4)[C@H]1CC[C@H]2[C@]12CCCC(C)(C)[C@H]1[C@H](O)[C@@]3(O)OC2`, in the test with K562, the IC50 is 2830 nM.
The same measure, in the same setting: for `C=C1C(=O)[C@]23[C@H](OC(=O)/C=C/c4cccnc4)[C@H]1CC[C@H]2[C@]12CCCC(C)(C)[C@H]1C[C@@]3(O)OC2` the value was 560 nM; for `C=C1C(=O)[C@]23[C@H](OC(=O)CCCc4ccccc4)[C@H]1CC[C@H]2[C@]12C=CCC(C)(C)[C@H]1[C@H](O)[C@@]3(O)OC2`, 3640 nM; for `C=C1C(=O)[C@]23[C@H](OC(=O)c4ccccc4C)[C@H]1CC[C@H]2[C@]12CCCC(C)(C)[C@H]1[C@H](O)[C@@]3(O)OC2`, 3290 nM.
With `C=C1C(=O)[C@]23[C@H](OC(=O)/C=C/c4cccc5[nH]ccc45)[C@H]1CC[C@H]2[C@]12C=CCC(C)(C)[C@H]1[C@H](O)[C@@]3(O)OC2`, the IC50 in the test with K562 was determined as 2580 nM.
The same measure, in the same setting: the result for `C=C1C(=O)[C@]23[C@H](OC(=O)/C=C/c4ccccc4)[C@H]1CC[C@H]2[C@]12C=CCC(C)(C)[C@H]1[C@H](O)[C@@]3(O)OC2` reads 710 nM; that for `C=C1C(=O)[C@]23[C@H](OC(=O)/C=C/c4ccc5ccccc5c4)[C@H]1CC[C@H]2[C@]12CCCC(C)(C)[C@H]1[C@H](O)[C@@]3(O)OC2`, 3700 nM; that for `C=C1C(=O)[C@]23[C@H](OC(=O)/C=C/c4ccccc4)[C@H]1CC[C@H]2[C@]12CCCC(C)(C)[C@H]1[C@H](O)[C@@]3(O)OC2`, 1760 nM.
Still for that read-out and setting: for `C=C1C(=O)[C@]23[C@H](OC(=O)/C=C/c4ccnc(F)c4)[C@H]1CC[C@H]2[C@]12CCCC(C)(C)[C@H]1C[C@@]3(O)OC2` the value was 900 nM.
Same read-out and setting: the result for `C=C1C(=O)[C@]23[C@H](OC(=O)/C=C/c4cccnc4)[C@H]1CC[C@H]2[C@]12C=CCC(C)(C)[C@H]1[C@H](O)[C@@]3(O)OC2` reads 540 nM; that for `C=C1C(=O)[C@]23[C@H](OC(C)=O)[C@H]1CC[C@H]2[C@]12CCCC(C)(C)[C@H]1[C@H](O)[C@@]3(O)OC2`, 5340 nM.
Consider `C=C1C(=O)[C@]23[C@H](OC(=O)/C=C/c4cncnc4)[C@H]1CC[C@H]2[C@]12C=CCC(C)(C)[C@H]1[C@H](O)[C@@]3(O)OC2`, for which the IC50 in the test with K562 was determined as 460 nM.
The same measure, in the same setting: the result for `C=C1C(=O)[C@]23[C@H](OC(=O)/C=C/c4ccc5ccccc5n4)[C@H]1CC[C@H]2[C@]12C=CCC(C)(C)[C@H]1[C@H](O)[C@@]3(O)OC2` reads 2900 nM; that for `C=C1C(=O)[C@]23[C@H](OC(=O)/C=C/c4ccsc4)[C@H]1CC[C@H]2[C@]12C=CCC(C)(C)[C@H]1[C@H](O)[C@@]3(O)OC2`, 1340 nM; that for `C=C1C(=O)[C@]23[C@H](OC(=O)/C=C/c4ccc[nH]4)[C@H]1CC[C@H]2[C@]12C=CCC(C)(C)[C@H]1[C@H](O)[C@@]3(O)OC2`, 1510 nM.
The same measure, in the same setting: for `C=C1C(=O)[C@]23[C@H](OC(=O)/C=C/c4ccccn4)[C@H]1CC[C@H]2[C@]12C=CCC(C)(C)[C@H]1[C@H](O)[C@@]3(O)OC2` the value was 1600 nM; for `C=C1C(=O)[C@]23[C@H](OC(=O)/C=C/c4cccc(Br)n4)[C@H]1CC[C@H]2[C@]12C=CCC(C)(C)[C@H]1[C@H](O)[C@@]3(O)OC2`, 1370 nM; for `C=C1C(=O)[C@]23[C@H](OC(=O)/C=C/c4ccco4)[C@H]1CC[C@H]2[C@]12C=CCC(C)(C)[C@H]1[C@H](O)[C@@]3(O)OC2`, 1520 nM.
With `C=C1C(=O)[C@]23[C@H](O)[C@H]1CC[C@H]2[C@]12C=CCC(C)(C)[C@H]1[C@H](O)[C@@]3(O)OC2`, the 50% inhibitory concentration (IC50) with K562 was found to be 2040 nM; with MDA-MB-231, 1880 nM; with SMMC-7721, 3760 nM; in the test on MCF7, 3500 nM.
With `C=C1C(=O)[C@]23[C@H](OC(=O)/C=C/c4cccc5c4OCO5)[C@H]1CC[C@H]2[C@]12C=CCC(C)(C)[C@H]1[C@H](O)[C@@]3(O)OC2`, the half-inhibitory concentration (IC50) in the test on K562 came to 2800 nM.
As to `C=C1C(=O)[C@@]23C(CC[C@@H]1[C@H]2OC(=O)c1ccc(F)cc1)[C@]12CCCC(C)(C)C1[C@H](O)[C@@]3(O)OC2` (stereo partly drawn), in the test on K562, the IC50 was determined as 4630 nM.
`C=C1C(=O)[C@]23[C@H](OC(=O)/C=C/c4ccsc4)[C@H]1CC[C@H]2[C@]12CCCC(C)(C)[C@H]1C[C@@]3(O)OC2`: in the test on K562, the half-inhibitory concentration (IC50) came out at 800 nM.
The same measure, in the same setting: the result for `C=C1C(=O)[C@]23[C@H](OC(=O)/C=C/c4ccccc4)[C@H]1CC[C@H]2[C@]12CCCC(C)(C)[C@H]1C[C@@]3(O)OC2` reads 2740 nM.
